Tests used:
UM-SCC-12 = assay: 6-day MTT cell growth, UM-SCC-12; assay type: cell-based, human; conditions: read-out: IC50, inhibition of cell growth
Procedure: (§1) UM-SCC and human fibroblast cell lines were continuously exposed to varying concentrations of (−)-gossypol in 6-day MTT cell survival assays. Control wells contained media (DMEM) with vehicle alone. For each data point n=5.
(§2) Ten squamous cell carcinoma cell lines established at the University of Michigan (UM-SCC) and three human fibroblast lines were grown in Dulbecco's modified Eagle's medium (DMEM) supplemented with 10% fetal bovine serum. UM-SCC cell lines originated from the larynx (n=2; UM-SCC-12, -23), oral cavity/oropharynx (n=5; UM-SCC-1, -6, -14A, -74B, -81B), hypopharynx (n=1; UM-SCC-22A) and metastases from laryngeal cancers (n=2; UM-SCC-17B, -25). Human fibroblast cell lines originated from surgical specimens (fibroblast cell lines 2 and 3) and neonatal foreskin samples (fibroblast cell line 1).
(§3) Logarithmically growing cell lines were cultured, washed, counted, and plated at 5,000-15,000 cells per well in duplicate wells of 96-well plates and incubated in DMEM overnight. […] The MTT assay measures cell survival based on mitochondrial conversion of MTT from a soluble tetrazolium salt into an insoluble colored formazan precipitate, which is dissolved in dimethyl sulfoxide and quantitated by spectrophotometry. […] Percent absorbance relative to control was plotted as a linear function of drug concentration.

UM-SCC cell lines = assay: Flow cytometric TUNEL apoptosis assay, UM-SCC cell lines grouped by p53 status; assay type: cell-based, human; conditions: 48-hour
Procedure: Briefly, FIGS. 24A-24C show apoptosis after (−)-gossypol as measured by a fluorescent flow cytometric TUNEL assay. Open peaks represent BrdU labeling of untreated cells. Shaded peaks indicate BrdU labeling of cell populations following 48-hour treatment with 10 μM (−)-gossypol; FIG. 24A, UM-SCC-cell lines with wild type p53; FIG. 24B, UM-SCC-cell lines with mutant p53; and FIG. 24C normal fibroblast cells.
Apoptosis of UM-SCC cell lines following (−)-gossypol treatment was quantitatively detected by enzymatic labeling of DNA strand breaks using terminal deoxynucleotidyltransferase (TdT) and Alexa Fluor-BrdUTP, known as the TdT-UTP nick end-labeling (TUNEL) assay by flow cytometry. Cells were exposed to (−)-gossypol for 48 hours, harvested, fixed and TUNEL stained according to the manufacturer's protocol (Molecular Probes Inc., Eugene, Oreg.). Ten thousand cells were analyzed per sample using excitation of Alexa Fluor at 488 nm. Apoptotic index (AI) was defined as percent of apoptotic cells in the treatment population minus that in the vehicle control population.

UM-SCC-1 = assay: Trypan blue exclusion cell death, UM-SCC-1; assay type: cell-based, human; conditions: 10 μM, 48 hour
Procedure: (§4) Cells were seeded in 24 or 96-well-plates and gossypol compounds were prepared at 2-10 fold dilutions in suitable medium. […] Cell viability was then determined by the trypan-blue assays. Inhibition of cell growth was determined by treating cells with gossypol compounds for 3-6 days. Cell inhibition was determined using XTT. In some embodiments, MTT assays are used to determine cell inhibition.

UM-SCC-6 = assay: Trypan blue exclusion cell death, UM-SCC-6; assay type: cell-based, human; conditions: 10 μM, 48 hour
Procedure: as §4

[1] = test system: PC-3 prostate cancer cells; assay: MTT-based 5-day cell proliferation, PC-3; design: species or system human
Source text: The present invention is not limited to any mechanism. Indeed, a mechanistic understanding of the invention is unnecessary to practice (make and use) the present compositions and methods.

[2] = test system: Fib-1 (fibroblast cell line 1); assay: 6-day MTT cell growth, Fib-1; assay type: cell-based, human; conditions: read-out: IC50, inhibition of cell growth
Procedure: as §1, §2, §3

Compound: Cc1cc2c(C(C)C)c(O)c(O)c(C=O)c2c(O)c1-c1c(C)cc2c(C(C)C)c(O)c(O)c(C=O)c2c1O [(−)-gossypol]
- IC50 (UM-SCC-12): 4 µM
- mean apoptotic index (UM-SCC cell lines; two cell lines with mutant p53, 10 μM): 20.7%±9.3
- mean apoptotic index (AI) (UM-SCC cell lines; two wild-type p53 tumor cell lines, 10 μM): 85.2%±6.9
- surviving (trypan blue excluding) fraction relative to untreated controls (UM-SCC-1): 20%
- surviving (trypan blue excluding) fraction relative to untreated controls (UM-SCC-6): 9%
- potency in inhibiting cancer cell growth relative to (+)-gossypol [1]: 5-10 times
- potency in inhibiting cancer cell growth relative to racemic gossypol [1]: 2 times
- IC50 [2]: 20 µM
